Assay results as given in ChEMBL document CHEMBL1629595, “Truncated tni module adjacent to the complex integron of salmonella genomic island 1 in Salmonella enterica serovar Virchow” (2009).
Values after ≈ are worked out from the molar mass of the structure shown.

Experiments:
[1] = Antibacterial activity against multidrug-resistant Salmonella enterica serovar Virchow B94 expressing floR2; assay type: functional, Salmonella enterica subsp. enterica serovar Virchow
[2] = Antibacterial activity against multidrug-resistant Salmonella enterica serovar Virchow B98 expressing floR2; assay type: functional, Salmonella enterica subsp. enterica serovar Virchow
[3] = Antibacterial activity against multidrug-resistant Salmonella enterica serovar Virchow B100 expressing floR2; assay type: functional, Salmonella enterica subsp. enterica serovar Virchow
[4] = test system: Salmonella typhimurium; assay: Antibacterial activity against multidrug-resistant Salmonella enterica subsp. enterica serovar Typhimurium BN9181 expressing floR; assay type: functional

Compound	MIC [1] [µg/mL]	MIC [2] [µg/mL]	MIC [3] [µg/mL]	MIC [4] [µg/mL]
O=C(N[C@H](CO)[C@H](O)c1ccc([N+](=O)[O-])cc1)C(Cl)Cl [CHLORAMPHENICOL]	> 256	> 256	> 256	256 (≈ 792 µM)
CS(=O)(=O)c1ccc([C@@H](O)[C@@H](CF)NC(=O)C(Cl)Cl)cc1 [FLORFENICOL]	32 (≈ 89.3 µM)	32 (≈ 89.3 µM)	32 (≈ 89.3 µM)	64 (≈ 179 µM)
